Measured values published in ChEMBL document CHEMBL1201862, “PubChem BioAssay data set” (2004).
Calls of active or inactive are those of the source.

How the values were obtained:
[1] = tested on: Danio rerio; assay: In Vivo Angiogenesis Dose-Response Confirmation. [Related pubchem assays: 732 (Assay preceding this confirmatory assay.)]; type: functional, organism-based
[2] = target: T1, Heat shock factor protein 1 (Mus musculus, UniProt P38532); assay: HSF1 potentiators in luciferase reporter cells, confirmation, cell-based, NIH3T3, luminescence, dose retest (AID 435004); type: functional;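 note: stress induced by proteasome inhibitor MG132 added 30 min after compound; luciferase reporter driven by HSF1 response element in NIH3T3 cells; actives raise luminescence as potentiators of the MG132 stress response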
T1 sequence (P38532 whole entry): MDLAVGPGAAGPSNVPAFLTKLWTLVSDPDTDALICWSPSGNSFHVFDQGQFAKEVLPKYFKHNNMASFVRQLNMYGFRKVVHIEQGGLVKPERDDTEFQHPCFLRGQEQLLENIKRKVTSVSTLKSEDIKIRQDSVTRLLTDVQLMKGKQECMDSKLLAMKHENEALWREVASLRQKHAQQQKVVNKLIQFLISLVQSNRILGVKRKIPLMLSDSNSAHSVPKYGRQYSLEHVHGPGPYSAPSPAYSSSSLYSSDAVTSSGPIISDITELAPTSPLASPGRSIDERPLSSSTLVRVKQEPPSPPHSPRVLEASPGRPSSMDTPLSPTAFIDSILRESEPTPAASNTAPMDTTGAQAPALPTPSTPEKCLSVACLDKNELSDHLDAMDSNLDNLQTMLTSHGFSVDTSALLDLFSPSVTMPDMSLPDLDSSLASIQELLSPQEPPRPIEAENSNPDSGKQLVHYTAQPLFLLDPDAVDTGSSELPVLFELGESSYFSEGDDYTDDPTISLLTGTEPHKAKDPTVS

[3] = Luminescent dose response cell-based high throughput screening assay for inhibitors of the Janus kinase 2 mutant JAK2V617F. [Related pubchem assays: 1446 (Primary screen.), 1521 (Confirmation assay.), 1486 (Counter screen.)]; type: functional
[4] = target: T2, fMet-Leu-Phe receptor (Homo sapiens, UniProt P21462); assay: FPR ligands, dose response (AID 519); type: functional
T2 sequence (P21462 whole entry): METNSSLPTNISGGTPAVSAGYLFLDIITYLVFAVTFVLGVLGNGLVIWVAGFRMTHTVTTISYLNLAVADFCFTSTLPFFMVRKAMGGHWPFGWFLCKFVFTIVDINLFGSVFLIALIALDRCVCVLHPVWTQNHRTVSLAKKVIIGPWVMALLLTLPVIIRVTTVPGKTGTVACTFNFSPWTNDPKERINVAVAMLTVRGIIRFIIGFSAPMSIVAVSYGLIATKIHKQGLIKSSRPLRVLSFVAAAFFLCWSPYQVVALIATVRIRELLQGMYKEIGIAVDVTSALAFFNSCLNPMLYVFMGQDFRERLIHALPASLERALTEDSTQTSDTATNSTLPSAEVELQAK

[5] = Luminescence Cell-Based Dose Confirmation HTS to Identify Activators of 5'UTR Stem-Loop Driven Alpha-Synuclein mRNA Translation in H4 Neuroglioblastoma Cells. [Related pubchem assays: 1829 (Project Summary), 1814 (Primary HTS)]; type: functional
[6] = Luminescence Cell-Based Dose Response to Identify Activators of 5'UTR Stem-Loop Driven Prion Protein mRNA Translation in H4-C Neuroglioblastoma Cells. [Related pubchem assays: 1829 (Project Summary), 1814 (Primary HTS)]; type: functional
[7] = Luminescence Cell-Based Dose Response to Identify Activators of Luciferase Translation or Activity in H4-C Neuroglioblastoma Cells. [Related pubchem assays: 1829 (Project Summary), 1814 (Primary HTS)]; type: functional
[8] = Luminescence Cell-Based Dose Confirmation to Identify Activators of 5'UTR Stem-Loop Driven Alpha-Synuclein mRNA Translation in H4 Neuroglioblastoma Cells. [Related pubchem assays: 1829 (Project Summary), 1814 (Primary HTS)]; type: functional
[9] = Luminescence Cell-Based Dose Response HTS to Identify Activators of Luciferase Translation or Activity in H4 […] Cells. [Related pubchem assays: 1829 (Project Summary), 1814 (Primary HTS)]; type: functional
[10] = target: Bifunctional protein GlmU (Mycobacterium tuberculosis, UniProt P9WMN3); assay: Inhibitors of Mycobacterial Glucosamine-1-phosphate acetyl transferase (GlmU). Secondary screen.; parameters: species or system Mycobacterium tuberculosis H37Rv
Sequence of Bifunctional protein GlmU (P9WMN3 whole entry): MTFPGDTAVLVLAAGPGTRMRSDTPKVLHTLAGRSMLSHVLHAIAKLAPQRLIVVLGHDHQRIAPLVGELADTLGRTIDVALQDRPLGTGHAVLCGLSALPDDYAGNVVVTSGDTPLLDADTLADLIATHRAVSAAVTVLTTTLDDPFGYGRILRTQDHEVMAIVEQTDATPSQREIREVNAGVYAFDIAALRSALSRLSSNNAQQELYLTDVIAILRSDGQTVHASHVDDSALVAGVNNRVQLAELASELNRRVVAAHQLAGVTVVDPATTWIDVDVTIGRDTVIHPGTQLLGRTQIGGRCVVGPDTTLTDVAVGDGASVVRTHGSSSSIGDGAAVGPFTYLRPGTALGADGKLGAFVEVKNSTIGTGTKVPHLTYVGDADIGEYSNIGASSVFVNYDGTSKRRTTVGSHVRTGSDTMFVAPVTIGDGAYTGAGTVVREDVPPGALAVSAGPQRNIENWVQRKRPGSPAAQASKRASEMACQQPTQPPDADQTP

[11] = target: 5-hydroxytryptamine receptor 1A (Homo sapiens, UniProt P08908); type: functional
Sequence of 5-hydroxytryptamine receptor 1A (P08908 whole entry): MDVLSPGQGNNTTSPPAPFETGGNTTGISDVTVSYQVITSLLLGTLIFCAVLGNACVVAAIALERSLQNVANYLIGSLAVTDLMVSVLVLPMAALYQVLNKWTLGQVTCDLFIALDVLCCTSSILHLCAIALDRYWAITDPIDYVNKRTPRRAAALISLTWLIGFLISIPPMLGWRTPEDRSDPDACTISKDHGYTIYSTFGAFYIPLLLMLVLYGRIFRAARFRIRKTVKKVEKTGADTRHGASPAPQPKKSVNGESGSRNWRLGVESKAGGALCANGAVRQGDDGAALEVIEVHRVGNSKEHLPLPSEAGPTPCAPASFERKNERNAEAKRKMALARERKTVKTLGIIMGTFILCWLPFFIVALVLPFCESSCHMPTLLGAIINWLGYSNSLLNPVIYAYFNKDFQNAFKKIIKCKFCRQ

[12] = HepG2 cell cytotoxicity, dose response, cytotoxicity control, cherry-picked samples (AID 1159577); type: functional, cell-based
[13] = P. falciparum Dd2 growth inhibitors, dose response, SYBR Green, cherry-picked samples (AID 1159567); type: functional, cell-based
[14] = P. falciparum 3D7-ScDHODH growth inhibitors, dose response, SYBR Green, dry powder samples (AID 1159570); type: functional, cell-based;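 note: parasite growth measured after 72 hours of compound exposure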
[15] = P. falciparum ATP4 D1247Y mutant growth inhibitors, dose response, NITD609-resistant line, SYBR Green, dry powder (AID 1159571); type: functional, cell-based;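 note: parasites synchronized at ring stage by sorbitol before testing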
[16] = P. falciparum Dd2 growth inhibitors, dose response, SYBR Green, dry powder samples (AID 1159566); type: functional, cell-based;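 note: potency for growth inhibition with lower SYBR green DNA signal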
[17] = Concentration-dependent survival of SW480 colon cancer line, luminescence detection with CellTiter-Glo, half-maximal inhibitory concentration (AID 1117338); type: functional
[18] = HCT116 cell viability decrease, GSK3B pretreatment – CellTiter-Glo, IC50, dose response (AID 1117339); type: functional; conditions: HCT-116
[19] = CellTiter-Glo luminescent dose response of DLD-1 viability loss (AID 1117352); type: functional
[20] = cytotoxicity toward HT-29 cells – cell-based, CellTiter-Glo luminescence, IC50, dose response (AID 1117330); type: functional
[21] = cytotoxicity toward HCT116 cells – cell-based, CellTiter-Glo luminescence, IC50, dose response (AID 1117332); type: functional; conditions: HCT-116
[22] = RKO cell viability reduction, dose response, CellTiter-Glo luminescence (AID 1117322); type: functional
[23] = SNU-C1 cell viability reduction, dose response, CellTiter-Glo luminescence (AID 1117323); type: functional, cell-based
[24] = cytotoxicity toward Colo320 cells – cell-based, CellTiter-Glo luminescence, IC50, dose response (AID 1117334); type: functional; conditions: COLO 320

In the case of `Cc1ccc2c(c1)/C(=C1/Nc3ccc(Br)cc3/C1=N\O)C(=O)N2`, the IC50 [1] is reported as 2.5 µM (active).
In the case of `Cc1cccc(OCC(=O)Nc2cc(C)ccc2O)c1`, the EC50 [2] is reported as 4.61 µM (active), the IC50 [3] is reported as 0.676 µM (active) and the Ki [4] is reported as > 66.7 µM (inactive).
With `O=C(N/N=C/c1ccccc1F)c1csc2c1CCCC2` the EC50 [5] was < 0.1 µM (active), the EC50 [6] was 0.264 µM (active) and the EC50 [7] was 0.323 µM (active). The EC50 [8] was 0.227 µM (active) and the EC50 [9] was < 0.1 µM (inconclusive).
In the case of `Nc1nonc1C(=O)N/N=C/c1ccc(-c2cccc(C(=O)O)c2)o1`, the IC50 [10] is reported as 188 µM (active).
With `CNCCc1c[nH]c2ccccc12` the EC50 [11] was 5.1 µM (active).
For `CCS(=O)(=O)N1CCCCN2[C@H](C1)[C@@H](c1ccc(C#Cc3ccccc3OC)cc1)[C@@H]2CO`, the AC50 [12] was > 39 µM (inactive) and the AC50 [13] was 4.67 µM (active).
With `COc1ccc2c3c(n(C)c2c1)[C@H](CO)NCC31CCN(Cc2ccc(Cl)cc2)CC1` the AC50 [12] was 17.7 µM (active) and the AC50 [13] was 0.504 µM (active).
With `COc1ccc(-c2ccccc2[C@H]2[C@@H](C#N)N(C(=O)NC(C)C)[C@H]2CO)cc1` the AC50 [14] was 2.01 µM (active), the AC50 [15] was 4.81 µM (active) and the AC50 [16] was 2.21 µM (active). The AC50 [13] was 2.04 µM (active).
In the case of `CCCn1cnc2c1c(=O)n(CCCCC(C)=O)c(=O)n2C` [PROPENTOFYLLINE], the IC50 [17] is reported as > 20 µM (inactive), the IC50 [18] is reported as > 20 µM (inactive) and the IC50 [19] is reported as > 20 µM (inactive). For the same molecule, the IC50 [20] was > 20 µM (inactive), the IC50 [21] was > 20 µM (inactive) and the IC50 [22] was > 20 µM (inactive). For the same molecule, the IC50 [23] was > 20 µM (inactive) and the IC50 [24] was > 20 µM (inactive).
